System: HepG2 cells
Assay: Oxidative stress (ROS) measurement by flow cytometry, CellROX Deep Red
Format: cell-based, human
Details: HepG2, 24 h at total IC50
Procedure: To determine the effect of the compounds on HepG2 cells, we analyzed oxidative status after 24 h of treatment as the pathological level of ROS affects the proper functioning of proteins, lipids, and nucleic acids. The compounds were added to the growth medium at a concentration that corresponds to the total IC50 value. After incubation, the cells were stained with CellROX Deep Red Reagent, which is an oxidative stress indicator. This is a non-fluorescent dye that emits red fluorescent signal upon oxidation by ROS. […] We observed an increase in fluorescence intensity of approximately 22–32% as compared to that of control cells (Figure 5 and Figure S298, ESI).
HepG2 cells (3.85 × 10^5) were seeded onto 6-well plates, cultured with EMEM media at 37 °C and 5% CO2 saturation, and incubated until 60–70% confluence. Subsequently, the cells were treated for 24 h with the tested compounds at a concentration corresponding to their total IC50 values. […] The level of intracellular ROS generation was analyzed by staining with CellROX™ Deep Red Reagent (ex/em: ~644/665 nm) according to the manufacturer’s protocol (Thermo Fisher Scientific, Waltham, MA, USA), in which fluorescence was triggered in the presence of ROS. […] The cells were analyzed after incubation with the dye, with excitation at […] by the FACSCalibur flow cytometer (Becton Dickinson), and data were analyzed by FlowJo software. […]

| Substance | increase in CellROX fluorescence intensity (ROS) as compared to control |
| --- | --- |
| N-[2-N-Pyrrolidinyl)ethyl]-4-[(6-(2-(1,7-dicarba-closo-dodecaborane-1-yl)-ethylamino)hexyl)amino]-1,8-naphthalimide [Compound 61] | 65% |
| N-[2-N-Pyrrolidinyl)ethyl]-4-[(6-(2-(1,2-dicarba-closo-dodecaborane-1-yl)-ethylamino)hexyl)amino]-1,8-naphthalimide [Compound 60] | 64% |
